Biological target: T1, recombinant human MAO-B (Homo sapiens, UniProt P27338)
T1 sequence (P27338 1-520): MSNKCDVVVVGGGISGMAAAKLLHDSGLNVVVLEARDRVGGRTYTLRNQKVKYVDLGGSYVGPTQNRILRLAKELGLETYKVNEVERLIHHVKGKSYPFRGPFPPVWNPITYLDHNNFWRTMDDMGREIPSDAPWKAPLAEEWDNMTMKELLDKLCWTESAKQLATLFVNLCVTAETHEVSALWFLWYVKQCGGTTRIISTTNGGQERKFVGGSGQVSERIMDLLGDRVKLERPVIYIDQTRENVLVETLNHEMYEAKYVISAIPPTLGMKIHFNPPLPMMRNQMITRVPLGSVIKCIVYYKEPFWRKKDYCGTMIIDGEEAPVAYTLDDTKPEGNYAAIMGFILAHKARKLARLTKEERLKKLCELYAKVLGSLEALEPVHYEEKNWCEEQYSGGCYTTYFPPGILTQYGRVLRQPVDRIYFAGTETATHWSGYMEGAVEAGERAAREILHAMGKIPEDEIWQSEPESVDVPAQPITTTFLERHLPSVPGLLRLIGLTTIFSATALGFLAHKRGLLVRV
Test: Reversibility of MAO-B inhibition by dialysis
Format: biochemical
Conditions: dialysis experiment

C[C@H](NCc1ccc(OCc2cccc(F)c2)cc1)C(N)=O [Safinamide]
Reversibility of MAO-B inhibition: reversible
